Test results: patent US8785488B2 (Exelixis Patent Company LLC, priority 2009, dated 2014)

molecular target: T1, human TGR5 (h-TGR5) (Homo sapiens, UniProt Q8TDU6); assay: TGR5/CRE-Luciferiase Assay (HEK 293 hTGR5/CRE-Luc cells); type: cell-based; conditions: h-TGR5 CRE-Luc EC50, Table 1; read-out: CRE-Luc (EC50)
T1 construct: expressed in transfected cells
T1 sequence (Q8TDU6 1-330): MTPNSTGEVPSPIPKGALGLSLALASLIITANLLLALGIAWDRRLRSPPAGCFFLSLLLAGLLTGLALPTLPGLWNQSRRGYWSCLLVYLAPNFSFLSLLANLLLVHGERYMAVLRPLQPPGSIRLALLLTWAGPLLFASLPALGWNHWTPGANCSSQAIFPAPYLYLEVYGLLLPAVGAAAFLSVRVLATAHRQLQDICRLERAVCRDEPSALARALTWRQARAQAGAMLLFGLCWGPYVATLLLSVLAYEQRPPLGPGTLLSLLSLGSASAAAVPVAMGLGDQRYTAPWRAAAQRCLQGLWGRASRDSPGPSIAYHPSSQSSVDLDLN
Outline: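 HEK293 cells stably carrying hTGR5 and a CRE-luciferase reporter were exposed to serially diluted compounds (diluted in DMEM with 5% DMSO) for 6 h. Cells were then lysed in luciferase buffer, luminescence was read, and EC50 values were derived from dose-response curves.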

Compound | EC50 [nM]
CC(C)(c1ccc(Cl)c(Cl)c1)c1cnc(SCc2ccc(Cl)cc2C(=O)O)n1-c1ccc(F)cc1 [5-chloro-2-[({5-[1-(3,4-dichlorophenyl)-1-methylethyl]-1-(4-fluorophenyl)-1H-imidazol-2-yl}thio)methyl]benzoic acid] | 100 to 1000
COc1ccc(C(C)(C)c2cnc(C(=O)N3CCCC3)n2-c2ccc(F)cc2)cc1OC [5-{1-[3,4-bis(methyloxy)phenyl]-1-methylethyl}-1-(4-fluorophenyl)-2-(pyrrolidin-1-ylcarbonyl)-1H-imidazole] | 1000 to 10000
COc1ccc(C(C)(C)c2cnc(S(=O)(=O)CCc3ccc(F)cc3Cl)n2-c2ccc(F)cc2)cc1OC [5-{1-[3,4-bis(methyloxy)phenyl]-1-methylethyl}-2-{[2-(2-chloro-4-fluorophenyl)ethyl]sulfonyl}-1-(4-fluorophenyl)-1H-imidazole] | < 100
COc1ccc(C(C)(C)c2cnc(S(=O)(=O)CCc3ccc(Cl)c(Cl)c3)n2-c2ccc(F)cc2)cc1OC [5-{1-[3,4-bis(methyloxy)phenyl]-1-methylethyl}-2-{[2-(3,4-dichlorophenyl)ethyl]sulfonyl}-1-(4-fluorophenyl)-1H-imidazole] | < 100
COc1ccc(C(C)(C)c2cnc(S(=O)(=O)CCc3ccc(F)c(Cl)c3)n2-c2ccc(F)cc2)cc1OC [5-{1-[3,4-bis(methyloxy)phenyl]-1-methylethyl}-2-{[2-(3-chloro-4-fluorophenyl)ethyl]sulfonyl}-1-(4-fluorophenyl)-1H-imidazole] | < 100
COc1ccc(C(C)(C)c2cnc(SCc3ccc(Cl)cc3Cl)n2-c2ccc(F)cc2)cc1OC [5-{1-[3,4-bis(methyloxy)phenyl]-1-methylethyl}-2-{[(2,4-dichlorophenyl)methyl]thio}-1-(4-fluorophenyl)-1H-imidazole] | < 100
COc1ccc(C(C)(C)c2cnc(S(=O)(=O)Cc3c(F)cccc3Cl)n2-c2ccc(F)cc2)cc1OC [5-{1-[3,4-bis(methyloxy)phenyl]-1-methylethyl}-2-{[(2-chloro-6-fluorophenyl)methyl]sulfonyl}-1-(4-fluorophenyl)-1H-imidazole] | < 100
COc1ccc(C(C)(C)c2c(-c3ccc(F)cc3)nc(SCc3c(F)cccc3Cl)n2C)cc1OC [5-{1-[3,4-bis(methyloxy)phenyl]-1-methylethyl}-2-{[(2-chloro-6-fluorophenyl)methyl]thio}-4-(4-fluorophenyl)-1-methyl-1H-imidazole] | 1000 to 10000
COc1ccc(C(C)(C)c2cnc(SCc3ccc(Cl)c(Cl)c3)n2-c2ccc(F)cc2)cc1OC [5-{1-[3,4-bis(methyloxy)phenyl]-1-methylethyl}-2-{[(3,4-dichlorophenyl)methyl]thio}-1-(4-fluorophenyl)-1H-imidazole] | < 100
COc1ccc(C(C)(C)c2cnc(SCc3ccc(F)c(Cl)c3)n2-c2ccc(F)cc2)cc1OC [5-{1-[3,4-bis(methyloxy)phenyl]-1-methylethyl}-2-{[(3-chloro-4-fluorophenyl)methyl]thio}-1-(4-fluorophenyl)-1H-imidazole] | < 100
COc1ccc(C(C)(C)c2cnc(C(=O)Nc3ccc(F)cc3Cl)n2-c2ccc(F)cc2)cc1OC [5-{1-[3,4-bis(methyloxy)phenyl]-1-methylethyl}-N-(2-chloro-4-fluorophenyl)-1-(4-fluorophenyl)-1H-imidazole-2-carboxamide] | 1000 to 10000
COc1ccc(C(C)(C)c2cnc(C(=O)Nc3c(F)cccc3Cl)n2-c2ccc(F)cc2)cc1OC [5-{1-[3,4-bis(methyloxy)phenyl]-1-methylethyl}-N-(2-chloro-6-fluorophenyl)-1-(4-fluorophenyl)-1H-imidazole-2-carboxamide] | 1000 to 10000
COc1ccc(C(C)(C)c2cnc(C(=O)N(C)c3c(F)cccc3Cl)n2-c2ccc(F)cc2)cc1OC [5-{1-[3,4-bis(methyloxy)phenyl]-1-methylethyl}-N-(2-chloro-6-fluorophenyl)-1-(4-fluorophenyl)-N-methyl-1H-imidazole-2-carboxamide] | 1000 to 10000
